Measurements from patent publication US20250275981A1, “HOMOHARRINGTONINE AND PACLITAXEL COMBINATION FOR THE TREATMENT OF BREAST CANCER” (priority 2022, published 2025).
Like-named read-outs stand apart in the source and are kept apart here.

Tests used:
[1] = tested on: anti-apoptotic proteins, including MCL-1, BCL-2 and surviving; conditions: several TNBC cell lines; reference [21]; cited from earlier work
HCC1806+HA-CREB3L1 cells = experiment: Cell viability drug titration (EC50), 4 days of drug treatment; format: cell-based; conditions: Homo sapiens, 96 h, single agent
Text: (§1) Significance was defined as p<0.05.

HCC38 = experiment: as above; format: cell-based; conditions: Homo sapiens
Text: as §1

T47D = experiment: as above; format: cell-based; conditions: Homo sapiens, 96 h
Text: as §1

MDA-MB-157 = experiment: as above; format: cell-based; conditions: Homo sapiens, MDA-MB-157, 96 h
Text: as §1

HCC1428 = experiment: as above; format: cell-based; conditions: for drug sensitivity of HCC1428 as compared to the corresponding CREB3L1-expressing cells: HCC1428 vs HCC1428 + HA-CREB3L1; for EC50: Homo sapiens
Text: as §1

HCC1395 = experiment: as above; format: cell-based; conditions: Homo sapiens
Text: as §1

MCF7 = experiment: as above; format: cell-based; conditions: Homo sapiens
Text: as §1

T47D + HA-CREB3L1 = experiment: as above; format: cell-based; conditions: Homo sapiens, 96 h
Text: as §1

HCC1428 + HA-CREB3L1 = experiment: as above; format: cell-based; conditions: Homo sapiens
Text: as §1

Hs578T = experiment: as above; format: cell-based; conditions: Homo sapiens, Hs-578T, 96 h
Text: as §1

ZR-75-1 = experiment: as above; format: cell-based; conditions: Homo sapiens
Text: as §1

BT549 = experiment: as above; format: cell-based; conditions: Homo sapiens, BT-549, 96 h
Text: as §1

MDA-MB-436 = experiment: as above; format: cell-based; conditions: Homo sapiens
Text: as §1

MCF10A cells = tested on: MCF10A cells
Method: Cells were authenticated by the supplier (http://www.ATCC.org) and cultured as recommended by ATCC for less than six months from the time of resuscitation. HCC1806, HCC1428 and T47D cells stably expressing triple hemagglutinin (HA)-tagged CREB3L1 (HA-CREB3L1) have been described and characterized previously.
Cells were allowed to attach and grow at 37° C. and 5% CO2. The following day the media was carefully removed from each well and replaced with drug-containing media in triplicate wells, again using the ASSIST PLUS. After 4 days of drug treatment cells were stained with Hoechst and ImageIT® Dead Green to quantify total and live cells as detailed below.
Images of each well of the 384-well plates were acquired using a Thermo Scientific® CellInsight® CX7 High Content Screening (HCS) Platform. Nine fields of view were captured using a 10×(0.4 NA) air objective lens. Images were analyzed using Thermo Scientific HCS Studio® 3 Cell Analysis Software using the Spot Detector bio-application (Cellomics®). Total cells were identified and counted by their Hoechst-stained nuclei at 386 nm (blue) channel 1 (Ch1) and dead cells were quantified from the ImageIT® Dead Green on the 485 nm wavelength (green) channel 2 (Ch2). […] The test well total live cell count was divided by the average of the corresponding solvent control total live cell count, giving the percentage cell viability (% viability). The mean±standard error of the mean (SEM) of the % viability of each set of triplicate wells was determined.
Drug titration experiments were carried out as described for the secondary drug screens, except a range of drug concentrations were tested. […] EC values were determined using PRISM software (GraphPad, v9.2.0) using non-linear curve fit. A student's t-test was used to determine statistically significant differences between the EC values for the two cell lines. Significance was defined as p<0.05.

HCC1806 cells = experiment: cells; format: cell-based
Text: as §1

[2] = tested on: MDA-MB-231 TNBC xenografts; conditions: cited from earlier work
TNBC = conditions: combined with docetaxel, reference [23]; cited from earlier work
[3] = 96 h, HCC38 parental (TNBC), single agent, 4 days, read-out: EC50
[4] = T47D parental (Luminal A, ER+), single agent, 4 days, read-out: EC50
[5] = 96 h, HCC1428 parental (Luminal A, ER+), single agent, 4 days, read-out: EC50
[6] = 96 h, HCC1395 parental (TNBC), single agent, 4 days, read-out: EC50
[7] = 96 h, MCF7 parental (Luminal A, ER+), single agent, 4 days, read-out: EC50
[8] = T47D + HA-CREB3L1, single agent, 4 days, read-out: EC50
[9] = 96 h, HCC1428 + HA-CREB3L1, single agent, 4 days, read-out: EC50
[10] = Hs578T parental (TNBC), single agent, 4 days, read-out: EC50
[11] = 96 h, ZR-75-1 parental (Luminal A, ER+), single agent, 4 days, read-out: EC50
[12] = BT549 parental (TNBC), single agent, 4 days, read-out: EC50
[13] = 96 h, MDA-MB-436 parental (TNBC), single agent, 4 days, read-out: EC50
[14] = Homo sapiens, HCC1806, 96 h, HCC1806 parental (CREB3L1-deficient TNBC), single agent, 4 days of drug treatment, read-out: EC50

COC(=O)C[C@](O)(CCCC(C)(C)O)C(=O)O[C@@H]1C(OC)=C[C@]23CCCN2CCc2cc4c(cc2[C@H]13)OCO4 [Homoharringtonine, 1-((1S,3aR,14bS)-2-Methoxy-1,5,6,8,9,14b-hexahydro-4H-cyclopenta(a)(1,3)dioxolo(4,5-h)pyrrolo (2,1-b)(3)benzazepin-1-yl) 4-methyl (2R)-2-hydroxy-2-(4-hydroxy-4-methylpentyl)butanedioate]
expression of anti-apoptotic proteins, including MCL-1, BCL-2 and surviving [1]: rapidly reduce the expression | EC50 (HCC1806+HA-CREB3L1 cells): 42 ± 7 nM | EC50 (HCC38; [3]): 58 ± 10 nM | EC50 (T47D; [4]): 400 ± 180 nM | EC50 (MDA-MB-157; read-out: EC50): 7.5 ± 1.2 nM | drug sensitivity of HCC1428 as compared to the corresponding CREB3L1-expressing cells (HCC1428): the opposite was true | EC50 (HCC1428; [5]): 9 ± 3 nM | EC50 (HCC1395; [6]): 104 ± 31 nM | EC50 (MCF7; [7]): 18 ± 9 nM | EC50 (T47D + HA-CREB3L1; [8]): 88 ± 55 nM | EC50 (HCC1428 + HA-CREB3L1; [9]): 10 ± 3 nM | EC50 (Hs578T; [10]): 42 ± 24 nM | EC50 (ZR-75-1; [11]): 117 ± 35 nM | EC50 (BT549; [12]): 89 ± 10 nM | EC50 (MDA-MB-436; [13]): 33 ± 36 nM | cytotoxicity towards non-tumorigenic MCF10A cells as compared to HCC1806 cells (MCF10A cells): similar | EC50 (HCC1806 cells; [14]): 29 nM | cytotoxicity towards CREB3L1-deficient HCC1806 as compared to HCC1806+HA-CREB3L1 cells (HCC1806 cells; drug titration, 4 days, FIG. 2): showed a preference for killing the more metastatic CREB3L1-deficient HCC1806 TNBC cells | tumor growth ([2]; MDA-MB-231 TNBC xenografts, mice, reference [21]): reduced tumor growth | general toxicity for the mice ([2]; mouse, in vivo): without general toxicity

Cc1c(-c2c(-c3ccc(F)o3)sc3ncnc(O[C@H](Cc4ccccc4OCc4ccnn4CC(F)(F)F)C(=O)O)c23)ccc(OCCN2CCN(C)CC2)c1Cl [S63845]
synergistic activity with docetaxel (TNBC): synergistic activity

COc1cccc2c1C(=O)c1c(O)c3c(c(O)c1C2=O)C[C@@](O)(C(=O)CO)C[C@@H]3O[C@H]1C[C@H](N)[C@H](O)[C@H](C)O1 [Doxorubicin, doxorubicin]
EC50 (HCC1806+HA-CREB3L1 cells): 17 ± 6 nM | EC50 (HCC1806 cells; HCC1806 parental (CREB3L1-deficient TNBC), single agent, 4 days of drug treatment, read-out: EC50): 13.2 nM | EC50 (HCC1806 cells; [14]): 13 ± 4 nM

Nc1nc(Cl)nc2c1ncn2[C@H]1C[C@H](O)[C@@H](CO)O1 [Cladribine, cladribine]
EC50 (HCC1806+HA-CREB3L1 cells): 182 ± 60 nM | EC50 (HCC38; [3]): 65 ± 56 nM | EC50 (T47D; [4]): 9600 ± 1800 nM | EC50 (MDA-MB-157; read-out: EC50): 5000 ± 4300 nM | drug sensitivity of HCC1428 as compared to the corresponding CREB3L1-expressing cells (HCC1428): increased drug sensitivity | EC50 (HCC1428; [5]): 740 ± 330 nM | EC50 (HCC1395; [6]): 10100 ± 1200 nM | EC50 (MCF7; [7]): 3400 ± 2100 nM | EC50 (T47D + HA-CREB3L1; [8]): 1800 ± 1300 nM | EC50 (HCC1428 + HA-CREB3L1; [9]): 2200 ± 1700 nM | EC50 (Hs578T; [10]): 5700 ± 1200 nM | EC50 (ZR-75-1; [11]): 750 ± 350 nM | EC50 (BT549; [12]): 178 ± 84 nM | EC50 (MDA-MB-436; [13]): 660 ± 180 nM | cytotoxicity towards non-tumorigenic MCF10A cells as compared to HCC1806 cells (MCF10A cells): Little or no cytotoxicity | EC50 (HCC1806 cells; [14]): 92 nM | cytotoxicity towards CREB3L1-deficient HCC1806 as compared to HCC1806+HA-CREB3L1 cells (HCC1806 cells; drug titration, 4 days, FIG. 2): showed a preference for killing the more metastatic CREB3L1-deficient HCC1806 TNBC cells

CC(=O)O[C@H]1C(=O)[C@@]2(C)[C@H]([C@H](OC(=O)c3ccccc3)[C@]3(O)C[C@H](OC(=O)[C@H](O)[C@@H](NC(=O)c4ccccc4)c4ccccc4)C(C)=C1C3(C)C)[C@]1(OC(C)=O)CO[C@@H]1C[C@@H]2O [Paclitaxel, (2α,4α,5β,7β,10β,13α)-4, 10-Bis(acetyloxy)-13-{[(2R,3S)-3-(benzoylamino)-2-hydroxy-3-phenylpropanoyl]oxy}-1,7-dihydroxy-9-oxo-5,20-epoxytax-11-en-2-yl benzoate]
EC50 (HCC1806+HA-CREB3L1 cells): 1.2 ± 0.4 nM | EC50 (HCC38; [3]): 2.4 nM | EC50 (HCC1395; [6]): 12 nM | EC50 (Hs578T; [10]): 7.4 nM | EC50 (HCC1806 cells; [14]): 1.2 ± 0.5 nM

CC(=O)c1c(C)c2cnc(Nc3ccc(N4CCNCC4)cn3)nc2n(C2CCCC2)c1=O [Palbociclib Isethionate, palbociclib isethionate]
EC50 (HCC1806+HA-CREB3L1 cells): 1300 ± 490 nM | EC50 (HCC38; [3]): 210 ± 70 nM | EC50 (T47D; [4]): 13000 ± 9800 nM | EC50 (HCC1428; [5]): 21 ± 15 nM | EC50 (HCC1395; [6]): 4000 ± 2000 nM | EC50 (MCF7; [7]): 4400 ± 3500 nM | EC50 (T47D + HA-CREB3L1; [8]): 7200 ± 9200 nM | EC50 (HCC1428 + HA-CREB3L1; [9]): 160 ± 250 nM | EC50 (Hs578T; [10]): 3200 ± 1400 nM | EC50 (ZR-75-1; [11]): 710 ± 350 nM | EC50 (BT549; [12]): 12600 ± 4800 nM | EC50 (MDA-MB-436; [13]): 17000 ± 14000 nM | cytotoxicity towards non-tumorigenic MCF10A cells as compared to HCC1806 cells (MCF10A cells): very sensitive | EC50 (HCC1806 cells; [14]): 500 nM | cytotoxicity towards CREB3L1-deficient HCC1806 as compared to HCC1806+HA-CREB3L1 cells (HCC1806 cells; drug titration, 4 days, FIG. 2): showed a preference for killing the more metastatic CREB3L1-deficient HCC1806 TNBC cells

CC(=O)O[C@H]1C[C@H](O[C@H]2[C@@H](O)C[C@H](O[C@H]3[C@@H](O)C[C@H](O[C@H]4CC[C@@]5(C)[C@H](CC[C@@H]6[C@@H]5C[C@@H](O)[C@]5(C)[C@@H](C7=CC(=O)OC7)CC[C@]65O)C4)O[C@@H]3C)O[C@@H]2C)O[C@H](C)[C@H]1O[C@@H]1O[C@H](CO)[C@@H](O)[C@H](O)[C@H]1O [Lanatoside C, lanatoside C]
EC50 (HCC38; HCC38, 96 h): 300 ± 100 nM | EC50 (T47D; T47D): 500 ± 50 nM | EC50 (MDA-MB-157): 550 ± 240 nM | drug sensitivity of HCC1428 as compared to the corresponding CREB3L1-expressing cells (HCC1428): the opposite was true | EC50 (HCC1428; HCC1428, 96 h): 35 ± 8 nM | EC50 (HCC1395; HCC1395, 96 h): 510 ± 300 nM | EC50 (MCF7; MCF7, 96 h): 450 ± 490 nM | EC50 (T47D + HA-CREB3L1; T47D): 89 ± 34 nM | EC50 (HCC1428 + HA-CREB3L1; HCC1428, 96 h): 32 ± 8 nM | EC50 (Hs578T): 1000 ± 800 nM | EC50 (ZR-75-1; ZR-75-1, 96 h): 650 ± 510 nM | EC50 (BT549): 42 ± 12 nM | EC50 (MDA-MB-436; MDA-MB-436, 96 h): 460 ± 250 nM | cytotoxicity towards non-tumorigenic MCF10A cells as compared to HCC1806 cells (MCF10A cells): very sensitive | cytotoxicity towards CREB3L1-deficient HCC1806 as compared to HCC1806+HA-CREB3L1 cells (HCC1806 cells): showed a preference for killing the more metastatic CREB3L1-deficient HCC1806 TNBC cells | EC50 (HCC1806 cells; Homo sapiens, HCC1806, 96 h): 143 nM
